# Source: patent publication US20240199555A1, “APPLICATIONS OF BIASED LIGANDS OF THE SEROTONIN 5-HT7 RECEPTOR FOR THE TREATMENT OF PAIN, MULTIPLE SCLEROSIS AND THE CONTROL OF THERMOREGULATION” (Centre National de la Recherche Scientifique, priority 2021, published 2024)
# How the values were obtained:
# [1] = target: human 5-HT7a receptor (Homo sapiens (Human), UniProt P34969); experiment: Radioligand binding competition, filtration binding assay, 5-HT7a; conditions: affinity on 5-HT7 receptor, table of new compounds
# Sequence of human 5-HT7a receptor (P34969 other isoform, or with tags, fused parts or gaps): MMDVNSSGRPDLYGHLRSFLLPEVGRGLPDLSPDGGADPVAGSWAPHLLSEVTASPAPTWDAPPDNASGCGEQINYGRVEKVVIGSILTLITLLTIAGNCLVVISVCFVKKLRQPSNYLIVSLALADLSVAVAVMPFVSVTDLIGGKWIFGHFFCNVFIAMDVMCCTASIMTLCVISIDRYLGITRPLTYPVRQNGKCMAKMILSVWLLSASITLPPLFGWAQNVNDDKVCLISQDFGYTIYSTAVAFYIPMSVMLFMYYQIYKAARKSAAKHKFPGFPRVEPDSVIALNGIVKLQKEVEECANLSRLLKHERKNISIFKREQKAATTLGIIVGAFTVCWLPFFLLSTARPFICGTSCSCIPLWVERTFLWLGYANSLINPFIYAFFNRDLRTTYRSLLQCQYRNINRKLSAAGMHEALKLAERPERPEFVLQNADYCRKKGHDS
# Protocol: (§1) FIG. 14: Testing of 8 molecules for radioligand binding competition activity on recombinant human 5-HT1A, 5-HT2A, 5-HT2Cedited, 5-HT6, 5-HT7 and D2(long) receptors using filtration binding assays.
# (§2) Radioligand Binding experiments were conducted with Epics Therapeutics membrane preparations. Receptor accession numbers, cellular background and reference compounds are shown in this table.
# Reference values thus obtained for the test were compared to historical values obtained from the same receptor and used to validate the experimental session. For replicate determinations, the maximum variability tolerated in the test was of +/−20% around the average of the replicates.
# (§3) Dose-response data from test compounds were analyzed with XLfit (IDBS) software using nonlinear regression applied to a sigmoidal dose-response model and the following equation: • XL Fit fit Model 203: 4 Parameter Logistic Model • A: Bottom • B: TOP • C: LogEC50 • D: Hill
# [2] = system: mice; experiment: Tail immersion test (50° C.); assay type: in vivo; conditions: 5-HT7R KO mice, subcutaneous
# Protocol: (A) Experimental protocol summary used. (B) Mice were subcutaneously injected with two different doses of the 5-HT7 receptor agonist Serodolin, 1 mg/kg or 5 mg/kg and 10 min later their tail extremity was immersed in water heated to 50 degrees. […] The effect of injections (Serodolin or E55888) was evaluated at TO, 30 min and 60 min corresponding to 10, 40 and 70 min after compound injections. […] Their tail extremity was immersed in water heated to 50 degrees at TO (E) or 30 min later (F) corresponding to 10 and 40 min after agonist injections. […] Statistical analysis was done using Tukey's multiple comparison test.
# Tail immersion test. Nociception was assessed with the tail immersion test, 10 min and 40 min after E55888 (5 mg/kg) or Serodolin (5 mg/kg) tail subcutaneous injections, in the water heated to 50° C. Vehicle (20% DMSO, 5% Tween 80 diluted in PBS solution) was used as a control group. These different groups were intraperitoneally injected (+) or not (−) with the 5-HT7R antagonist SB269960 (5 mg/kg) 10 min before the ligand injection. The tail withdrawal latency (s) was measured for each animal.
# [3] = system: mice; experiment: CFA-induced mechanical hypersensitivity, Von Frey filament test; assay type: in vivo; conditions: 5 mg/kg, s.c., 30 minutes
# Protocol: Mechanical hypersensitivity was evaluated after CFA intraplantar injection by using the Von Frey test. […] Mechanical hypersensitivity was performed 24 hrs later (pre-treatment) CFA intraplantar injection into the left hind paw (ipsilateral paw). […] The ligand effects (E55888 or Serodolin) were evaluated 30 min and 24 hrs after in the ipsilateral paw. Data are means±SEM of values obtained in 2 independent experiments (n=8 to 10 per group). ****p<0.0001 ***p<0.001 **p<0.01 *p<0.05. Statistical analysis was done using Kruskal Wallis test.
# Von Frey filament test. Before inducing peripheral inflammation, each animal was tested on the left hind paw with Von Frey Filament to determine its basal sensibility level. Then, peripheral inflammation was induced by intraplantar injection of Complete Freund's Adjuvant (CFA-10 μL) (F5881, Sigma) in the left hind paw (ipsilateral paw) and mechanical allodynia was measure (pre-treatment). Mice were divided into two groups, one with E55888 (5 mg/kg) and the other with Serodolin (5 mg/kg) subcutaneous injections in the ipsilateral paw. Both in absence (−) or in presence (+) of the 5-HT7R antagonist SB269960 (5 mg/kg), intraperitoneally, 20 min before the agonist injections (8-10 mice per group).
# The inventors wanted to evaluate the effect of Serodolin on mechanical hypersensitivity in comparison with E-55888 after CFA injection.
# [4] = Pharmacokinetic study in plasma and brain; assay type: in vivo, C57BL/6 mice; conditions: 5 mg/kg, subcutaneous
# Protocol: FIG. 20: Pharmacokinetic study of E55888 and Serodolin. Concentration-time profile of E55888 (reference agonist) and Serodolin in plasma (A) and brain (B) following subcutaneous injection of a unique dose 5 mg/kg of each compound in C57BL/6 mice. Data represent the mean concentration±SEM of n=4 each time point.
# The pharmacokinetic study was undertaken to evaluate and compare the quantity of Serodolin and E55888 in plasma and brain samples from C57BL/6 mice (Janvier, Le Genest France) at several time points. Seven weeks old C57BL/6 mice (n=4 animals per group) received by subcutaneous injection a unique dose (5 mg/kg) of Serodolin or E55888 (U103013S, Achemblock). Control group received vehicle (solution of 20% DMSO and 5% Tween 80 diluted in NaCl). […] Blank vehicle mouse brains homogenates and plasma were used to established standard curves of Serodolin or E55888. […] Study samples, brains homogenates and plasma, were prepared for protein precipitation by adding 85 μL of acetonitrile+5-CT to 20 μL of samples. LC-HRMS analysis for PK studies were performed on a maXis Q-TOF mass spectrometer (Bruker, Bremen, Germany) coupled to an U3000 RSLC UHPLC system (Dionex, Germering, Germany). Separation was obtained using an Acquity UPLC BEH C18 column (2.1×50 mm; 1.7 μm) (Waters, Saint-Quentin-en-Yvelines, France) thermostated at 40° C. with a gradient of water (solvent A) and acetonitrile (solvent B), both acidified with 0.1% formic acid at 500 μL/min. […] The samples were randomized prior analysis; 1.25 μL were injected for plasma and 8 μL for brains. […] Area were integrated from extracted ion chromatograms (EIC) of [M+H]+ ions using QuantAnalysis 4.4 software (Bruker) with a tolerance of ±0.005 u.
# The pharmacokinetics profile of both compounds were evaluated. The inventors used liquid chromatography tandem mass spectrometry (UPLC-MS/MS) method to perform PK study and measure Serodolin vs E55888 levels in vivo.
# [5] = target: human 5-HT1A receptor (Homo sapiens (Human), UniProt P08908); experiment: Radioligand binding competition, 5-HT1A; conditions: selectivity panel
# Sequence of human 5-HT1A receptor (P08908 whole entry): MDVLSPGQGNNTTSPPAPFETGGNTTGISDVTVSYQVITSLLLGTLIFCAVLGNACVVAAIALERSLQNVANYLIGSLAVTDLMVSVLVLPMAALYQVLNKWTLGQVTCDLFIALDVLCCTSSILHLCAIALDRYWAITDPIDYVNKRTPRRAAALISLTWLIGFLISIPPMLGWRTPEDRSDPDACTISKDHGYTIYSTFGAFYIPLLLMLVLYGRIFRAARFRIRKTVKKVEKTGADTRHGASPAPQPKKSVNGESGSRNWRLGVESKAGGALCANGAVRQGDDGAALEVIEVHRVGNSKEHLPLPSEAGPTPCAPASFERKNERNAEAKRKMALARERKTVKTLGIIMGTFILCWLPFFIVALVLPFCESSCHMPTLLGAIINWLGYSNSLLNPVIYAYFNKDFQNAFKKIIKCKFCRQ
# Protocol: as §1, §2
# (§4) The new compounds have been tested by radioligand binding competition activity at the human 5-HT1A (FAST-0500B), 5-HT2A (FAST-0505B), 5-HT2Cedited (FAST-0507B), 5-HT6 (FAST-0509B), 5-HT7a (FAST-05111B) and D2(long) (FAST-0101B) receptors at seven (7) concentrations, in duplicate. […] Reference values thus obtained for the test were compared to historical values obtained from the same receptor and used to validate the experimental session. For replicate determinations, the maximum variability tolerated in the test was of +/−20% around the average of the replicates.
# as §3
# [6] = target: human 5-HT2A receptor (Homo sapiens (Human), UniProt P28223); experiment: Radioligand binding competition, 5-HT2A; conditions: selectivity panel
# Sequence of human 5-HT2A receptor (P28223 whole entry): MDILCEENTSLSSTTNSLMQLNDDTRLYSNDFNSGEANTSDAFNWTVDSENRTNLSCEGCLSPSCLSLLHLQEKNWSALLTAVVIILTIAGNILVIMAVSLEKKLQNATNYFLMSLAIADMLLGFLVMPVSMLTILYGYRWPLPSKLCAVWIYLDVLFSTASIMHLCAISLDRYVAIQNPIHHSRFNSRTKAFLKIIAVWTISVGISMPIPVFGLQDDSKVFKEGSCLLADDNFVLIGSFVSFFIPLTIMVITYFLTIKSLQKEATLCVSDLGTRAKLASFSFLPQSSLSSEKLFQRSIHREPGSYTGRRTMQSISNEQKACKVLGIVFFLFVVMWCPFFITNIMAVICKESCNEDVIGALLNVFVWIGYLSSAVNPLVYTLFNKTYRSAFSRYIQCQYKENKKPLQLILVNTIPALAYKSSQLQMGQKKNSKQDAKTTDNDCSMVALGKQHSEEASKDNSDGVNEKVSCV
# Protocol: as §1, §2, §4, §3
# [7] = target: human 5-HT2Cedited receptor (Homo sapiens, UniProt P28335); experiment: Radioligand binding competition, 5-HT2Cedited; conditions: selectivity panel
# Sequence of human 5-HT2Cedited receptor (P28335 33-458 limits assumed): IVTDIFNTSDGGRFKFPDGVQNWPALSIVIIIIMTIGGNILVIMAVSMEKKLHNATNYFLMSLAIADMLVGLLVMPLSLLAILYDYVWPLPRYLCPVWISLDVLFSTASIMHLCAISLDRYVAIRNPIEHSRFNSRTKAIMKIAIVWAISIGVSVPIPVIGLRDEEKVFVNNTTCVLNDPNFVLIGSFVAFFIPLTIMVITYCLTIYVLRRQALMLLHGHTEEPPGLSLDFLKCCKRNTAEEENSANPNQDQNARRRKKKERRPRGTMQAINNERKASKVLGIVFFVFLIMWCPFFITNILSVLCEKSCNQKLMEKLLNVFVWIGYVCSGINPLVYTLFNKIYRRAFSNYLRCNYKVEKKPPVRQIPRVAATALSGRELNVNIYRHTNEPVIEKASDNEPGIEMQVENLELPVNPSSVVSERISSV
# Protocol: as §1, §2, §4, §3
# [8] = target: T1, h5-HT7R (Homo sapiens (Human), UniProt P34969); experiment: cAMP accumulation (LANCE cAMP detection kit) in HEK-293 cells stably expressing h5-HT7R; assay type: cell-based; conditions: tested alone
# T1 sequence (P34969 1-432): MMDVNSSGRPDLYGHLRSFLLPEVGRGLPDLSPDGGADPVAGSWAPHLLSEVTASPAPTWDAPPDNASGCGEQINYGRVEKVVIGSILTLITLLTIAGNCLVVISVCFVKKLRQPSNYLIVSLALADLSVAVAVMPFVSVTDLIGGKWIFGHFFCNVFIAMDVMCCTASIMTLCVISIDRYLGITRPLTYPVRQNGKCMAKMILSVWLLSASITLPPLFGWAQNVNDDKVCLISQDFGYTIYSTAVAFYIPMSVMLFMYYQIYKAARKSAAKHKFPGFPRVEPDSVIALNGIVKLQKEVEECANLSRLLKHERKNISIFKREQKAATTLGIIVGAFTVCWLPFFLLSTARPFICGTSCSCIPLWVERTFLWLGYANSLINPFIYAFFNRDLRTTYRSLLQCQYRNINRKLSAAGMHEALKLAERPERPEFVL
# Protocol: (B) HEK-293 cells stably expressing h5-HT7R were stimulated with 10 nM of 5-CT and increasing concentrations of products for one hour. After cell lysis, cAMP production was quantified by a LANCE cAMP detection kit (Perkin Elmer). […] Data points represent the means±SEM from three independent experiments performed in triplicate. The EC50 and IC50 for each drug was determined using GraphPad Prism software.
# cAMP accumulation was measured with a LANCE™ cAMP detection kit (Perkin-Elmer Life Sciences, Boston, MA, USA). 12 h before experiment cells were starved. Forty-eight h after transfection, cells were harvested in Hank's balanced salt solution (HBSS) containing 5 mM HEPES, 1 mM isobutylmethylxanthine (IBMX) and 0.1% BSA, PH 7.4. After centrifugation (1000×g, 5 min), cells were resuspended in the same buffer (2×10^6 per ml). The ALEXA™ fluor 647 anti-cAMP antibody solution (1 μl) was added to the cell suspension (100 μl) and 5 μl aliquots of the mixture were dispensed in white 384-well microtiter plates (Optiplate, Perkin Elmer). The cells were then stimulated with different drugs. After 1 h incubation at room temperature in the dark, lysis buffer (0.35% Triton X-100, 10 mM CaCl2, 50 mM HEPES) containing LANCE EU-W8044 labeled streptavidin and biotinylated-cAMP was added to the cells (10 μL per well). After 2 h incubation at room temperature in the dark, the plates were read on a VictorV™ microplate reader (Perkin-Elmer Life Sciences). Concentration/response curves were analyzed using Prism 4 software.
# HEK-293 fibroblast stably expressing 5-HT7 receptor were used to compare the effect of different 5-HT7R ligands on the classical Gαs-mediated activation of AC pathway. It was decided to evaluate the lead compounds from two series of ligands, Serodolin and MOA-51 (FIG. 1A).
# [9] = target: T1, h5-HT7R; experiment: AlphaScreen SureFire phospho-ERK and phospho-c-SRC assays; assay type: cell-based; conditions: pretreatment of cells, Serodolin stimulation
# Protocol: FIG. 7: Serodolin induced ERK phosphorylation is dependent on c-SRC activation and requires proline-rich regions on 5-HT7R. […] Cells were lysed, and western blot analysis was performed. (B) The phosphorylation of ERK1/2 as well as phosphorylation of c-SRC were quantified on the same cell lysates using the AlphaScreen assays. Means±SEM of values from three experiments performed in triplicate. (C) The PXXP motif in the C-terminal tail of 5-HT7R has been mutated as described in the upper panel. The corresponding constructs encoding HA-tagged 5-HT7 receptor were transfected in HEK-293 cells as indicated (MutT1, mutT2 and mutT3), then the effect of 5-CT and Serodolin have been evaluated on ERK1/2 and c-SRC activation by Western blot analysis. Representative immunoblots of three independent experiments are illustrated.
# The AlphaScreen SureFire phospho-ERK and phosphor-c-SRC assays (PerkinElmer) were used to quantify pERK1/2 and pc-SRC from HEK-293 cell lysates according to the manufacturer's instructions.
# (2018) V1b vasopressin receptor trafficking and signaling: Role of arrestins, G proteins and Src kinase. Traffic 19, 58-82; Rey, A., Manen, D., Rizzoli, R., Caverzasio, J., and Ferrari, S. L. (2006) Proline-rich motifs in the parathyroid hormone (PTH)/PTH-related protein receptor C terminus mediate scaffolding of c-Src with beta-arrestin2 for ERK1/2 activation. J Biol Chem 281, 38181-38188). […] To determine whether one of these mechanisms was required for Serodolin-induced ERK phosphorylation, the inventors first evaluated the sensitivity of this activation to the c-SRC-specific tyrosine kinase inhibitor PP2. […]
structure (smiles),measurement,setting,value
"Cc1nn(C)c(C)c1-c1cccc(CCN(C)C)c1 [E55888, reference compound]",IC50,[1],2.68 nM
same,Ki,[1],1.88 nM
same,anti-nociceptive effect in 5-HT7R KO mice,[2],did not exert any anti-nociceptive effect
same,"CFA-induced mechanical hypersensitivity, 30 minutes after administration",[3],reversed the CFA-induced mechanical hypersensitivity
same,passage of the brain blood barrier,[4],ability to pass the brain blood barrier
same,time of maximum of detection,[4]; both in plasma and brain,15 to 30 min
same,maximum of detection in brain,[4]; brain,1.4 ± 0.2 µg/mL
same,maximum of detection in plasma,[4]; plasma,6.1 ± 0.5 µg/mL
same,time after which eliminated / undetectable,[4]; plasma and brain,120 min
O=C(c1ccc(F)cc1)C1CCN(CCCCn2c(=O)[nH]c3ccccc32)CC1 [MOA51],IC50,[1],0.29 nM
same,Ki,[1],0.2 nM
same,IC50,[5]; read-out: RLB 5-HT1A IC50,885 nM
same,Ki,[5]; read-out: RLB 5-HT1A Ki,442 nM
same,IC50,[6]; read-out: RLB 5-HT2A IC50,3.29 nM
same,Ki,[6]; read-out: RLB 5-HT2A Ki,0.54 nM
same,IC50,[7]; read-out: RLB 5-HT2Cedited IC50,699 nM
same,Ki,[7]; read-out: RLB 5-HT2Cedited Ki,115 nM
same,inhibition of cAMP production when tested alone (inverse agonist effect),[8],around 75%
CC(C)(C)n1nc(-c2ccc(Cl)cc2)c2c(N)ncnc21 [PP2],block of Serodolin-induced ERK phosphorylation,[9],99%
same,block of Serodolin-induced c-SRC phosphorylation,[9],100%
Nc1ncnc2c1cnn2-c1ccccc1 [PP3],block of Serodolin-induced ERK phosphorylation,[9],inactive
